# Measurements published in paper PMC3056768, “Conjugation to the Cell-Penetrating Peptide TAT Potentiates the Photodynamic Effect of Carboxytetramethylrhodamine” (PLoS ONE, 2011).
# Entries after “also recorded” stand apart in the source; their conditions may differ.
# How the values were obtained:
# COS-7 cells = assay: Photosensitization of endocytosed peptide; format: cell-based, African green monkey; details: COS-7, 3 µM for 1 h, washed, 560 nm
# Experimental: HeLa (human cervical adenocarcinoma), COS-7 (SV40 transformed African green monkey kidney fibroblast-like cell line) were obtained from ATCC. COLO 316 (human ovarian carcinoma) were obtained from Robert Burghardt (Department of Veterinary Integrative Biosciences, Texas A&M University). Cells were cultured in DMEM supplemented with 10% fetal bovine serum (FBS) and maintained at 37°C in a humidified environment with 5% CO2. Cells were plated in 8-well dishes so that the cells were 70% confluent after 24 h, washed 3 times with L-15 media, incubated with 3 to 10 µM peptides at 37°C for 1 h, washed 3 times with L-15, and imaged. Alternatively, cells were incubated in L-15 at 4°C to inhibit the endocytic uptake of peptides. […] Plasma membrane disruption was detected by addition of the cell-impermeable DNA stain SYTOX Blue (5 µM) during or after photosensitization.
# TMR-TAT induces cell-death upon light irradiation in HeLa or COS-7 cells. […] Cells were observed using a 10× objective using bright field and fluorescence imaging (CFP filter to detect SYTOX® Blue). […] Cells were observed using a 100× objective using bright field and fluorescence imaging (RFP filter to detect TMR-TAT, pseudocolored red, and CFP filter to detect SYTOX® Blue, pseudo colored blue). […]
# HeLa cells [1] = assay: Photosensitization of extracellular peptide at 4°C (endocytosis blocked); format: cell-based, human; details: 3 µM, 4°C to block endocytosis, irradiated at 560 nm with compound still in the media
# Experimental: (§1) HeLa (human cervical adenocarcinoma), COS-7 (SV40 transformed African green monkey kidney fibroblast-like cell line) were obtained from ATCC. COLO 316 (human ovarian carcinoma) were obtained from Robert Burghardt (Department of Veterinary Integrative Biosciences, Texas A&M University). Cells were cultured in DMEM supplemented with 10% fetal bovine serum (FBS) and maintained at 37°C in a humidified environment with 5% CO2. Cells were plated in 8-well dishes so that the cells were 70% confluent after 24 h, washed 3 times with L-15 media, incubated with 3 to 10 µM peptides at 37°C for 1 h, washed 3 times with L-15, and imaged. Alternatively, cells were incubated in L-15 at 4°C to inhibit the endocytic uptake of peptides. In this case, cells were imaged with the peptide still present in solution and the low temperature was maintained for the entire duration of imaging. For photosensitization, cells were exposed to light (λex = 560±20 nm) for the indicated time points. Plasma membrane disruption was detected by addition of the cell-impermeable DNA stain SYTOX Blue (5 µM) during or after photosensitization.
# It is therefore possible that the endosomal release observed in the experiments of Figure 1 might be necessary to cause cell death. To investigate whether this is the case, we examined if light-induced cell-death could be observed when the peptides were only localized at the plasma membrane of cells. For these experiments, HeLa cells were first incubated with the peptides (3 µM) at 4°C to block endocytosis. Cells were then irradiated with the peptides still present in the media (the peptide is not retained at the plasma membrane when cells are washed). […] Cells were then washed and observed by fluorescence imaging. […] On the other hand, the membrane damage and cell death obtained after TMR-TAT photosensitization were also observed when hematoporphyrin (HP) or hematoporphyrin derivative (HPD) were used (Fig. 4B). […]
# HeLa cells [2] = assay: Photocytotoxicity of endocytosed peptide after light irradiation (SYTOX Blue staining, membrane blebbing); format: cell-based
# Experimental: as §1
# (§2) Ten to twenty images were acquired for each experiment.
# Irradiances at the specimen were 100 mW/cm^2 when no neutral density filter and no objective were present in the light path (and, for instance 5 mW/cm^2 when ND4 was inserted). Irradiances were measured using a monochromic photometer (model 840-c, Newport, Irvine, CA). Irradiation area has a diameter of 1.3 cm without objective but the light beam is focused into an area of 3×10^−3 cm^2 by the 100× objective. Irradiances can therefore be approximated to be at […] with ND4 or ND1, respectively. Irradiances provided in the figure legends are based on these calculations. To confirm that the irradiances measured on the microscope were accurate, experiments were also reproduced, when possible, using light illumination with a collimated light source from Oriel (Stratford, CT) equipped with a 500 W Hg lamp. Selective irradiation at 560 nm was performed using an analytical line filter (Oriel, 9.4 nm bandwidth). In this case, irradiances of the light beam (diameter of 2.5 cm) could be measured more precisely using the monochromic photometer.
# HeLa cells [3] = assay: Toxicity in the absence of light (SYTOX green / DAPI); format: cell-based, human; details: concentrations up to 25 µM, 1 h in L-15 at 37°C, washed, additional 4 h, average of 3 experiments
# Experimental: Supplementary file pone.0017732.s001.tif: Figure S1 Toxicity of TMR-TAT toward HeLa cells in the absence of light. TMR-TAT was incubated at the concentration indicated with cells for 1 hour in L-15 at 37°C. Cells were washed with fresh L-15 and incubated for an additional 4 h. Cells were then treated with L-15 containing DAPI and SYTOX® green. DAPI stains the nucleus of all cells while SYTOX® green only stains the nucleus of dead cells. Cells were imaged by fluorescence microscopy using the DAPI and FITC filters to detect DAPI and SYTOX® green, respectively. For each experiments, five representative images were acquired using the 20× objective and the percentage of dead cells were calculated from the ratio of cells stained by SYTOX® green divided by the number of cells stained by DAPI. The reported data is the average of 3 experiments (3×5 images, ≥1000 cells/experiments) and the error bar represents the standard deviation. (TIF) Click here for additional data file.
# HeLa cells [4] = assay: Photo-induced endosomal release (fluorescence imaging); format: cell-based, human
# Experimental: as §1, §2
# The effect of light irradiation on cells that have endocytosed TMR-TAT was first investigated. HeLa cells were incubated in the presence of TMR-TAT (3 µM) for 1 hour at 37°C. After washing the cells, the sample was placed on a microscope and the cellular distribution of the peptide was assessed by fluorescence imaging. […] Within seconds, the content of many endosomes was released into the cell and the peptides were distributed throughout the cell. The peptide also accumulated at the nucleoli, a known effect of TAT [7]. […] The viability of non-irradiated cells was, in contrast, not affected by TMR-TAT (Fig. 2B); we found the cytotoxicity of the peptide to be negligible in the absence of light at concentrations up to 25 µM (supporting information Fig. S1).
# [5] = incubation 1 h 37°C (3 µM; TMR-K9 10 µM), washed, irradiated at 560±20 nm
smiles,measurement,setting,value
CN(C)c1ccc2c(c1)Oc1cc(N(C)C)ccc1C21OC(=O)c2cc(C(=O)NCC(=O)N[C@@H](CCCNC(=N)N)C(=O)N[C@@H](CCCCN)C(=O)N[C@@H](CCCCN)C(=O)N[C@@H](CCCNC(=N)N)C(=O)N[C@@H](CCCNC(=N)N)C(=O)N[C@@H](CCC(N)=O)C(=O)N[C@@H](CCCNC(=N)N)C(=O)N[C@@H](CCCNC(=N)N)C(=O)N[C@@H](CCCNC(=N)N)C(=O)NCC(N)=O)ccc21 [TMR-TAT],"photo-induced activities (endosomal release, blebbing, SYTOX Blue staining)",COS-7 cells,"could be reproduced; also recorded: membrane blebs are formed on the cell surface, and the nuclei of cells are stained by SYTOX® Blue"
same,light-induced cell death with peptide only extracellular,HeLa cells [1],"dramatic cytoplasmic extrusion, membrane blebbing, shrinkage and cell death"
same,"cell destruction, percentage of irradiated cells (SYTOX Blue staining)","HeLa cells [2]; endocytosed peptide, 2 sec irradiation at 560 nm, radiant exposure approx. 40 J/cm^2, at least 3000 cells, reproduced at least 3 times",more than 95%
same,photocytotoxicity / cell death after irradiation at 560 nm,HeLa cells [2]; [5],rapid necrosis; also recorded: plasma membrane damage and cell death
same,cytotoxicity in the absence of light,HeLa cells [3],negligible
same,endosomal release on exposure to light of wavelengths not absorbed by TMR,HeLa cells [4]; e.g. 436 or 470 nm,No endosomal release
same,photo-induced endosomal release (photoendosomolytic activity) at 560 nm,HeLa cells [4]; [5],release of the fluorescent peptides from endosomes into the cytosol; also recorded: escape of TMR-TAT from endocytic organelles into the cytosol
